In patent US20220072138A1, “NRTI THERAPIES” (THE UNIVERSITY OF LIVERPOOL, priority 2018, published 2022):

Tests used:
[1] = primate; cited from earlier work
HIV [2] = details: in vivo; cited from earlier work
HIV [3] = details: cited from earlier work
in vitro = in vitro ADME; details: both sexes, human, plasma, pH 7.4
Experimental: (§1) After incubation at 37° C., aliquots were taken at each time point and quenched in 2 volumes of Ice-cold methanol. The quenched aliquots were then centrifuged at 14000 rpm for 5 min. The supernatant was diluted 10-fold Into phosphate buffer (0.1 M, pH 7.4) and injected onto the HPLC for analysis (5% to 100% B over 8 minutes at a flow rate of 1 mL mi; solvent A: 50 mM Et3NHOAc, pH 8; solvent B: acetonitrile) and read spectrophotometrically monitoring a decrease in substrate peak area at 305 nm (23) or 280 nm (25) over time. Quantification of 23 at each time point to determine rate was achieved by converting peak areas to nmols using a standard curve (23). Quantification of 25 at each time point to determine rate was achieved by calculating nmols based on the percent of total peak area at 250 nm (25+26, 200 nmol total). Hydrolysis of 25 yields two molar equivalents of 1, determined by quantifying 1 using a standard curve following full conversion of 25 to 1.
Human Plasma (Bioreclamation IVT). Solution used for in vitro metabolism is a 50/50 mix of Human Plasma (Male) (Bioreclamation IVT, Cat #[…]2-M) and Human Plasma (Female) (Bioreclamation IVT, Cat #[…]2-F)

[4] = In vitro metabolism of FTC POP fragments in human skeletal muscle S9; format: in vitro ADME; details: human skeletal muscle S9, 1 mM, 37° C.
Experimental: as §1
Human S9-Skeletal Muscle (Bioreclamation IVT). Solution used for in vitro metabolism is a 50/50 mix of Male Human S9 (Bioreclamation IVT, Cat #S03517) and Female Human S9 (Bioreclamation IVT, Cat #S03518). Protein concentrations (mg/mL) were determined by averaging the concentrations provided by Bioreclamation.

[5] = In vitro metabolism of FTC POP fragments in human liver S9; format: in vitro ADME; details: human liver S9, 1 mM, 37° C.
Experimental: as §1
Human Liver S9 Fraction-Pool of 50 (Sekuisi Xenotech, Product #HO610.59; 20 mg/mL stock)

[6] = Solubility of carbamate 5 in phosphate buffer; format: physicochemical; details: 100 mM phosphate buffer pH 7.4 with 5% DMSO v/v
Experimental: Carbamate 5 was synthesized according to the process described above. Purity. The compound was dissolved in DMSO (100 μM) and injected on HPLC to determine purity of 95.1% at 269-270 nm. Standard Curve. Serial dilution of carbamate 5 in DMSO (100 μM to 0.78 μM) was done and each sample injected on HPLC. The UV absorbance at different concentrations was used to obtain a linear standard curve. The standard curve was used in determining solubility in buffers, kinetics of degradation at pH 7.4 and stability under polymerization conditions. Solubility. Carbamate 5 in DMSO was mixed with 100 mM phosphate buffer pH7.4 with varying amounts of DMSO (0.1% v/v, 0.5% v/v, 1% v/v and 5% v/v). The mixtures were centrifuged at 14000 rpm for 5 min and the supernatant injected on HPLC.

[7] = Stability of carbamate 5 under model polymerization conditions; format: physicochemical; details: CH2Cl2, 0.5 eq DMAP, 2 eq pyridine, RT
Experimental: Stability of compound 5 under polymerization conditions. Carbamate 5 is shown to release TAF in a time bond manner. To determine the stability of carbamate moiety under polymerization conditions and evaluate the utility of TAF phenyl carbamates, carbamate 5 was tested for its stability under model polymerization conditions. A solution of carbamate 5 in methylene chloride (CH2Cl2) was stirred with 0.5 molar equivalent of 4-Dimethylaminopyridine and 2 molar equivalents of pyridine at room temperature (RT, 22-25° C.) for 24 h. The portion of the reaction mixture was removed and dissolved in DMSO followed by analysis of the reaction mixture using HPLC to determine amount of TAF formed and carbamate 5 left after 24 h. Standard curve was used to determine that 20.5% TAF was formed after 24 hours, leaving 79.5% carbamate 5 intact (FIG. 23).

C#C[C@]1(CO)O[C@@H](n2cnc3c(N)nc(F)nc32)C[C@@H]1O [EFdA, 4′-ethynyl-2-fluoro-2′-deoxyadenosine]
plasma t1/2 [1]: ~7 h
viral suppression maintained after the last dose (HIV [2]): ≥ 7 days
predicted in vitro potency relative to TFV (HIV [3]; higher than TFV): ~8400 fold
IC50 (HIV [3]; read-out: in vitro IC50): ~200 pM

O=C(Nc1nc(=O)n([C@@H]2CS[C@H](CO)O2)cc1F)OCCOCCOCCOC(=O)Nc1nc(=O)n([C@@H]2CS[C@H](CO)O2)cc1F [Polymer 23, (ethane-1,2-diylbis(oxy))bis(ethane-2,1-diyl) bis((5-fluoro-1-((2R,5S)-2-(hydroxymethyl)-1,3-oxathiolan-5-yl)-2-oxo-1,2-dihydropyrimidin-4-yl)carbamate)]
half-life at 1 mM (in vitro): 13 ± 1.5 h
Muscle S9 initial rate (rate of disappearance of starting material) [4]: *Non-linear trend
Liver S9 initial rate (rate of disappearance of starting material) [5]: 0.6 ± 0.06 nmol/h/mg

Nc1nc(=O)n([C@@H]2CS[C@H](COC(=O)OCCOCCOCCOC(=O)OC[C@@H]3O[C@H](n4cc(F)c(N)nc4=O)CS3)O2)cc1F [Polymer 25, bis(((2R,5S)-5-(4-amino-5-fluoro-2-oxopyrimidin-1(2H)-yl)-1,3-oxathiolan-2-yl)methyl) ((ethane-1,2-diylbis(oxy))bis(ethane-2,1-diyl)) bis(carbonate)]
half-life at 1 mM (in vitro): 0.45 ± 0.02 h
Muscle S9 initial rate (rate of disappearance of starting material) [4]: 3.7 ± 0.4 nmol/h/mg
Liver S9 initial rate (rate of disappearance of starting material) [5]: 1014 ± 86 nmol/h/mg

N-(2,4,6-trimethylphenyl)-tenofovir alafenamide carbamate [carbamate 5]
solubility (achievable concentration) [6]: 111.2 µM
TAF formed after 24 hours [7]: 20.5%
carbamate 5 left intact after 24 hours [7]: 79.5%
